From patent US9701646B2, “Small molecule inhibitors of PI3-kinase signaling” (Tufts University, priority 2013, dated 2017)
Where two headings read alike, the source gives them in different places.

Tests used:
[1] = tested on: A2780 human ovarian cancer cells; assay: Cell viability of A2780 cells, ATP assay; format: cell-based; conditions: Homo sapiens, A2780, 24 h
Description: (§1) A2780 human ovarian cancer cells were maintained in culture at 37° C., 5% CO2, complete medium for 24 h in the presence of various final concentrations of DM-PIT-1, YK-NCL-176, YK-NCL-198, or NK-YCL-240, each in DMSO, with or without 1 μg/mL TRAIL. DMSO alone was used as a negative control. Following the incubation, cell viability was measured using an ATP assay.
as §1, with “YK-NCL-217, YK-NCL-218, NK-YCL-219, YK-NCL-220, YK-NCL-234,” for “YK-NCL-176, YK-NCL-198,”, “YK-NCL-241,” for “NK-YCL-240,”

[2] = tested on: U87MG human glioblastoma cells; assay: Cell viability of U87MG cells, ATP assay; format: cell-based; conditions: Homo sapiens, U-87 MG, 24 h
Description: U87MG human glioblastoma cells were maintained in culture at 37° C., 5% CO2, complete medium for 24 h in the presence of various final concentrations of YK-NCL-176, YK-NCL-177, YK-NCL-178, YK-NCL-179, YK-NCL-180, YK-NCL-183, YK-NCL-184, YK-NCL-185, YK-NCL-186, YK-NCL-187, YK-NCL-188, YK-NCL-189, YK-NCL-190, YK-NCL-191, YK-NCL-192, YK-NCL-193, YK-NCL-194, YK-NCL-195, YK-NCL-196, YK-NCL-197, NK-YCL-198, or YK-NCL-199, each in DMSO, with or without 1 μg/mL TRAIL. DMSO alone was used as a negative control. Following the incubation, cell viability was measured using an ATP assay.

[3] = in DMSO, without TRAIL, read-out: EC50 alone
[4] = with 1 μg/mL TRAIL, read-out: EC50 with TRAIL

| SMILES | EC50 [1, 3] [µM] | EC50 [1, 4] [µM] | EC50 [2, 3] [µM] | EC50 [2, 4] [µM] |
| --- | --- | --- | --- | --- |
| O=C(c1ccc2ccccc2c1)c1cn(-c2ccc([N+](=O)[O-])cc2O)nn1 [YK-NCL-189] |  |  | > 100 | > 100 |
| Cc1cc(C)cc(C(=O)c2cn(-c3cc(C)ccc3O)nn2)c1 [YK-NCL-193] |  |  | > 100 | > 100 |
| COc1ccc(Cl)cc1-n1cc(C(=O)c2ccccc2)nn1 [YK-NCL-178] |  |  | > 100 | > 100 |
| O=C(c1ccccc1)c1cn(-c2ccc(Cl)cc2O)nn1 [YK-NCL-191] |  |  | 48.9 | 42.3 |
| COc1ccc(Cl)cc1-n1nncc1C(=O)c1ccccc1 [YK-NCL-177] |  |  | > 100 | > 100 |
| CC(C)c1ccc(C(=O)c2cn(-c3cc(Cl)ccc3O)nn2)cc1 [YK-NCL-195] |  |  | 64.1 | 41.6 |
| Cc1cc(C)cc(C(=O)c2cn(-c3ccc([N+](=O)[O-])cc3O)nn2)c1 [YK-NCL-194] |  |  | 89.1 | 70.5 |
| O=C(c1ccc2ccccc2c1)c1cn(-c2cc(Cl)ccc2O)nn1 [YK-NCL-186] |  |  | > 100 | > 100 |
| O=C(NCc1cn(-c2cc(Cl)ccc2O)nn1)c1cc(C(F)(F)F)cc(C(F)(F)F)c1 [YK-NCL-234] | 16.2 | 14 |  |  |
| Cc1ccc(O)c(-n2cc(C(=O)c3ccc(C(C)C)cc3)nn2)c1 [YK-NCL-197] |  |  | > 100 | > 100 |
| CC(C)c1ccc(C(=O)c2cn(-c3ccc([N+](=O)[O-])cc3O)nn2)cc1 [YK-NCL-199] |  |  | > 100 | 95.3 |
| Cc1cc(C)cc(C(=O)c2cn(-c3cc(Cl)ccc3O)nn2)c1 [YK-NCL-190] |  |  | 57.8 | 30.6 |
| Cc1cc(C)cc(C(=O)c2cn(-c3ccc(Cl)cc3O)nn2)c1 [YK-NCL-183] |  |  | > 100 | 64.4 |

Now from value to compound:

| EC50 [1, 3] [µM] | EC50 [1, 4] [µM] | EC50 [2, 3] [µM] | EC50 [2, 4] [µM] | SMILES |
| --- | --- | --- | --- | --- |
| 24.1 | 9.2 |  |  | Cc1ccc(O)c(-n2cc(C(O)(c3ccccc3)c3cn(-c4cc(C)ccc4O)nn3)nn2)c1 [YK-NCL-219] |
|  |  | 8.1 | 8 | Cc1cccc(O)c1-n1cc(C(=O)c2ccccc2)nn1 [YK-NCL-185] |
|  |  | > 100 | > 100 | COc1ccc(Cl)cc1-n1cc(C(O)(c2ccccc2)c2cn(-c3cc(Cl)ccc3OC)nn2)nn1 [YK-NCL-180] |
| > 100 | > 100 |  |  | Oc1ccc(Cl)cc1-n1cc(CC(O)(c2ccccc2)c2cn(-c3cc(Cl)ccc3O)nn2)nn1 (centres unmarked) [YK-NCL-241] |
|  |  | 85.2 | 74.9 | Cc1cccc(O)c1-n1cc(C(=O)c2ccc3ccccc3c2)nn1 [YK-NCL-187] |
| > 100 | 22.8 |  |  | Cc1cccc(O)c1-n1cc(C(O)(c2ccccc2)c2cn(-c3c(C)cccc3O)nn2)nn1 [YK-NCL-218] |
| 50.9 | 13.5 |  |  | Cc1cccc(O)c1-n1cc(C(O)(c2cc(C(F)(F)F)cc(C(F)(F)F)c2)c2cn(-c3c(C)cccc3O)nn2)nn1 [YK-NCL-217] |
|  |  | > 100 | > 100 | Cc1ccc(O)c(-n2cc(C(=O)c3ccc4ccccc4c3)nn2)c1 [YK-NCL-188] |
|  |  | > 100 | > 100 | Cc1ccc(O)c(-n2cc(C(=O)c3ccccc3)nn2)c1 [YK-NCL-184] |
| > 100 | 16.9 |  |  | Cc1cc(C)cc(C(O)(c2cn(-c3c(C)cccc3O)nn2)c2cn(-c3c(C)cccc3O)nn2)c1 [YK-NCL-220] |
|  |  | 104 | 98.4 | Cc1cc(C)cc(C(=O)c2cn(-c3c(C)cccc3O)nn2)c1 [YK-NCL-192] |
|  |  | > 100 | > 100 | Cc1cccc(O)c1-n1cc(C(=O)c2ccc(C(C)C)cc2)nn1 [YK-NCL-196] |
